Laboratory results: patent US20100119607A1, “BIOENHANCED COMPOSITIONS” (Rubicon Research Pvt. Ltd., priority 2005, published 2010)
Values after ≈ are worked out from the molar mass of the structure shown. Structures can show the parent of a compound that is named as a salt. Where two headings read alike, the source gives them in different places.

What was measured:
[1] = Solubility of eprosartan mesylate solid dispersions in 0.1N HCl; assay type: physicochemical; settings: simulated gastric fluid, thermodynamic from solid
[2] = Solubility of candesartan cilexetil dispersions in 0.1N HCl; assay type: physicochemical; settings: simulated gastric fluid
[3] = 0.1N HCL with 0.5% SLS, USP Type II, 50 RPM
[4] = background statement in detailed description; cited from earlier work

CCCCc1ncc(/C=C(\Cc2cccs2)C(=O)O)n1Cc1ccc(C(=O)O)cc1 [Eprosartan mesylate, eprosartan mesylate]
solubility [1]: 712 µg/mL

CCOc1nc2cccc(C(=O)OC(C)OC(=O)OC3CCCCC3)c2n1Cc1ccc(-c2ccccc2-c2nnn[nH]2)cc1 (centres unmarked) [Candesartan cilexetil, candesartan cilexetil]
solubility [2]: 0.51 µg/mL (≈ 0.835 µM)

CCCCC(=O)N(Cc1ccc(-c2ccccc2-c2nnn[nH]2)cc1)[C@H](C(=O)O)C(C)C [Valsartan, valsartan]
% Cum. Dissolved ([3]; 0 minutes): 0%
% Cum. Dissolved ([3]; 5 minutes): 1.0%
% Cum. Dissolved ([3]; 10 minutes): 4.1%
% Cum. Dissolved ([3]; 15 minutes): 6.7%
% Cum. Dissolved ([3]; 30 minutes): 6.5%
% Cum. Dissolved ([3]; 60 minutes): 9.7%
% Cum. Dissolved ([3]; 120 minutes): 15.7%
% Cum. Dissolved ([3]; 120 minutes, listed as pure valsartan): 15%
bioavailability [4]: 10-25%
